Results: patent publication EP0637247B1, “TREATMENT OF HERPESVIRUS INFECTION” (priority 1992, dated 1993)
Read-outs that look alike come from different tables or passages of the source. Where a SMILES comes first, the peptide text is derived from it. [ ]: non-standard residue; d: D form.

Experiments:
[1] = system: HSV-1 F; format: cell-based; details: plaque reduction, HSV-1 F on Vero cell monolayers, peptide pretreatment 25 hours, replication 2 to 3 days
Description: Selected compounds were first formulated as 10 mM stocks in water for in vitro and cell culture procedures. The stocks are then diluted into buffers used for specific assays, or into cell culture media. For animal studies peptides are diluted into phosphate buffer saline.
Results of the plaque reduction assay performed with various peptides, expressed in terms of IC50 are tabulated below: […]

[2] = system: HSV-1 strain F; details: mice, foot-pad injections in PBS, one week pretreatment then three times weekly; particularly at the doses of 5 and 50µg/mouse
Description: After pretreatment, the left footpad was inflamed by injecting about 5 µL of 1M NaCl. After about 6 hours, the same footpad was abraded and a drop of HSV-1 strain F (2 x 10^3 pfu/ml) was then added deposited on the inflamed footpad.

SMILES | IC50 ([1]; read-out: IC50) [µM] | further results
CC[C@H](C)[C@H](NC(=O)[C@H](C)NC(=O)[C@@H](NC(=O)[C@H](Cc1ccccc1)NC(C)=O)[C@@H](C)CC)C(=O)N[C@@H](C)C(=O)N[C@H](CCCNC(=N)N)C(=O)N[C@H](CCCCN)C(=O)N[C@H](CCCCN)C(=O)N[C@H](CCCNC(=N)N)C(=O)N[C@H](CCCNC(=N)N)C(=O)N[C@H](CCC(N)=O)C(=O)N[C@H](CCCNC(=N)N)C(=O)N[C@H](CCCNC(=N)N)C(N)=O (Ac-FIAIA[dR][dK][dK][dR][dR][dQ][dR][dR]-NH2) | 10 | 
CC(=O)N[C@H](CCCNC(=N)N)C(=O)N[C@H](CCCCN)C(=O)N[C@H](CCCCN)C(=O)N[C@H](CCCNC(=N)N)C(=O)N[C@H](CCCNC(=N)N)C(=O)N[C@H](CCC(N)=O)C(=O)N[C@H](CCCNC(=N)N)C(=O)N[C@H](CCCNC(=N)N)C(N)=O (Ac-[dR][dK][dK][dR][dR][dQ][dR][dR]-NH2) | > 20 | 
CC(=O)N[C@H](CCCNC(=N)N)C(=O)N[C@H](CCCNC(=N)N)C(=O)N[C@H](CCCNC(=N)N)C(=O)N[C@H](CCCNC(=N)N)C(=O)N[C@H](CCCNC(=N)N)C(=O)N[C@H](CCCNC(=N)N)C(=O)N[C@H](CCCNC(=N)N)C(N)=O [acetyl-[D-Arg]7-NH2, acetyl-[D-(Arg)7]-NH2] |  | IC50 [1]: slight
CC(=O)N[C@H](CCCNC(=N)N)C(=O)N[C@H](CCCNC(=N)N)C(=O)N[C@H](CCCNC(=N)N)C(=O)N[C@H](CCCNC(=N)N)C(=O)N[C@H](CCCNC(=N)N)C(=O)N[C@H](CCCNC(=N)N)C(=O)N[C@H](CCCNC(=N)N)C(=O)N[C@H](CCCNC(=N)N)C(=O)N[C@H](CCCNC(=N)N)C(N)=O [acetyl-[D-Arg]9-NH2] |  | anti-herpetic effect in vivo (Figure 3) [2]: anti-herpetic result
